The target of this assay is IRAK4 (Homo sapiens (Human), UniProt Q9NWZ3). Description: IRAK4 Kinase Assay. Conditions: IMAP fluorescence polarization, 0.5 nM GST tagged IRAK4, 100 μM ATP, 30 minutes at 25° C.; read-out: IRAK4 IC50. The format is biochemical. A general note: In fluorescence polarisation assays a small probe gives low polarisation when free and higher when bound to something large.

This passage reports IC50 results from patent US10329294B2, “Pyrazolopyrimidine inhibitors of IRAK4 activity” (MERCK SHARP & DOHME CORP., priority 2015, dated 2019).

Counter-ions that a name gives are not always drawn.

Chain of IRAK4 (Q9NWZ3 whole entry): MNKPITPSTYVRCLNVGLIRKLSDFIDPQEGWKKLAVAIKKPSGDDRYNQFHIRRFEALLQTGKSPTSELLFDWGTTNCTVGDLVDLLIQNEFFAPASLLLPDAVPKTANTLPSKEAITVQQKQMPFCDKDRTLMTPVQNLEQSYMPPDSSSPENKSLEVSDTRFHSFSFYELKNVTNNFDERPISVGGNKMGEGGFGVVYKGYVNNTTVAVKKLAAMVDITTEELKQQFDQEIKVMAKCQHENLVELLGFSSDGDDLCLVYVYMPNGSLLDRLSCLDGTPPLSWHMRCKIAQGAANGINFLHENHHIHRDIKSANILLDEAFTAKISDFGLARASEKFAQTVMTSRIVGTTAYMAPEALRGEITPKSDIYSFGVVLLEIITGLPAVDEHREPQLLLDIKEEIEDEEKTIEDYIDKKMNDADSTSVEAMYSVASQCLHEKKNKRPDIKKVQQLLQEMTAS

On to `N[C@@H]1[C@H](Nc2ccn3ncc(C(=O)Nc4ccccc4Cl)c3n2)CCCC1(F)F` [Example 106, 5-{[(1R,2R)-2-amino-3,3-difluorocyclohexyl]amino}-N-(2-chlorophenyl)pyrazolo[1,5-a]pyrimidine-3-carboxamide trifluoroacetate], for which the half-maximal inhibitory concentration (IC50) (as a rule, the midpoint of a concentration-inhibition curve) was 788 nM. Take `N#Cc1ccccc1NC(=O)c1cnn2ccc(N3CC4CCC3CN4)nc12` (stereo not drawn) [Example 271, N-(2-cyanophenyl)-5-(2,5-diazabicyclo[2.2.2]oct-2-yl)pyrazolo[1,5-a]pyrimidine-3-carboxamide trifluoroacetate]: the half-inhibitory concentration (IC50) came out at 403 nM. Turning to `O=C(Nc1ccsc1C(F)(F)F)c1cnn2ccc(N3CCCNCC3)nc12` [Example 153, 5-(1,4-diazepan-1-yl)-N-[2-(trifluoromethyl)thiophen-3-yl]pyrazolo[1,5-a]pyrimidine-3-carboxamide trifluoroacetate], the IC50 turned out to be 1010 nM.

In the case of `CC(C)n1cc(NC(=O)c2cnn3ccc(N[C@@H]4CCCC(F)(F)[C@@H]4N)nc23)c(C(F)F)n1` [Example 200, 5-{[(1R,2R)-2-amino-3,3-difluorocyclohexyl]amino}-N-[3-(difluoromethyl)-1-(1-methylethyl)-1H-pyrazol-4-yl]pyrazolo[1,5-a]pyrimidine-3-carboxamide trifluoroacetate], the half-inhibitory concentration (IC50) came to 36 nM. The same measure for `N[C@H]1CCCC[C@H]1Nc1ccn2ncc(C(=O)Nc3csc(CO)c3)c2n1` [Example 275, 5-(((1R,2S)-2-Aminocyclohexyl)amino)-N-(5-(hydroxymethyl)thiophen-3-yl)pyrazolo[1,5-a]pyrimidine-3-carboxamide]: 17 nM; for `N[C@H]1CCCC[C@H]1Nc1ccn2ncc(C(=O)Nc3ccccc3C(F)F)c2n1` [Example 131, 5-{[(1R,2S)-2-aminocyclohexyl]amino}-N-[2-(difluoromethyl)phenyl] pyrazolo[1,5-a]pyrimidine-3-carboxamide trifluoroacetate]: 8 nM. Consider `N[C@H]1CCCC[C@H]1Nc1ccn2ncc(C(=O)Nc3ccccc3Br)c2n1` [Example 113, 5-{[(1R,2S)-2-aminocyclohexyl]amino}-N-(2-bromophenyl)pyrazolo[1,5-a]pyrimidine-3-carboxamide trifluoroacetate], for which the IC50 came to 2 nM. Next, `Cn1cc(NC(=O)c2cnn3ccc(N4CC5CCC4CN5)nc23)c(C#N)n1` (stereo not drawn) [Example 136, N-(3-cyano-1-methyl-1H-pyrazol-4-yl)-5-(2,5-diazabicyclo[2.2.2]oct-2-yl)pyrazolo[1,5-a]pyrimidine-3-carboxamide trifluoroacetate]: 49 nM; `Cn1cc(NC(=O)c2cnn3ccc(N4CC5CCC4CN5)nc23)c(Br)n1` (stereo not drawn) [Example 140, N-(3-bromo-1-methyl-1H-pyrazol-4-yl)-5-(2,5-diazabicyclo[2.2.2]oct-2-yl)pyrazolo[1,5-a]pyrimidine-3-carboxamide trifluoroacetate]: 42 nM.

With `Cn1cc(NC(=O)c2cnn3ccc(N4CCNCC(F)(F)C4)nc23)c(C(F)(F)F)n1` [Example 36, 5-(6,6-difluoro-1,4-diazepan-1-yl)-N-[1-methyl-3-(trifluoromethyl)-1H-pyrazol-4-yl]pyrazolo[1,5-a]pyrimidine-3-carboxamide trifluoroacetate], the IC50 turned out to be 376 nM. `N[C@H]1CCCC[C@H]1Nc1ccn2ncc(C(=O)Nc3cn(C(F)F)nc3C(F)(F)F)c2n1` [Example 296, 5-{[(1R,2S)-2-aminocyclohexyl]amino}-N-[1-(difluoromethyl)-3-(trifluoromethyl)-1H-pyrazol-4-yl]pyrazolo[1,5-a]pyrimidine-3-carboxamide trifluoroacetate]: the half-inhibitory concentration (IC50) turned out to be 2 nM. Take `Cn1cc(NC(=O)c2cnn3ccc(N4CCC[C@H](O)C4)nc23)c(C(F)(F)F)n1` [Example 22, 5-[(3S)-3-hydroxypiperidin-1-yl]-N-[1-methyl-3-(trifluoromethyl)-1H-pyrazol-4-yl]pyrazolo[1,5-a]pyrimidine-3-carboxamide]: the half-inhibitory concentration (IC50) amounted to 2 nM.
